Test results published in patent US20250290928A1, “METHOD, KIT AND DEVICE FOR DETECTING EXTRACELLULAR VESICLES” (priority 2022, published 2025).
Primed or numbered codes have the meaning given here. *: point of attachment. Dabcyl′ = 4-((4-(dimethylamino)phenyl)azo)benzoic acid, CN(C)c1ccc(/N=N/c2ccc(C(=O)*)cc2)cc1; 5FAM = O=C1OC2(c3ccc(O)cc3Oc3cc(O)ccc32)c2ccc(C(=O)*)cc21

What was measured:
Type in all cases: biochemical, Human
[1] = system: MMP in the MDA-MB-231-derived extracellular vesicles; assay: Evaluation of MMP activity of MDA-MB-231-derived extracellular vesicles with 96-well plate (SensoLyte 520 MMP Substrate Sampler Kit); settings: for Fluorescence change after 1 hour of reaction at 30° C.: Example 34, EV 4 μg/mL, reporter 5 μM, buffer (4); for Fluorescence change after 2 hours of reaction at 30° C.: MP, EV 3.3 μg/mL
Method: (§1) 50 μL of the MMP detection solution was added to 50 μL of each of the samples, a reaction was performed at 30° C., and MMP activity was evaluated.
(§2) 50 μL of each of the MMP detection solutions was added to 50 μL of each of the samples, a reaction was performed at 30° C., and MMP activity was evaluated.

[2] = system: MMP in the A549-derived extracellular vesicles; assay: Evaluation of MMP activity of A549-derived extracellular vesicles with 96-well plate (SensoLyte 520 MMP Substrate Sampler Kit); settings: Example 34, EV 4 μg/mL, reporter 5 μM, buffer (4)
Method: (§3) The MMP14 activity was evaluated with a 96-well plate (manufactured by Thermo Fisher Scientific Inc., model number: 137101). A fluorescence intensity was measured with a fluorescence plate reader (Synergy MX, manufactured by BioTek Instruments, Inc.) at […] every 5 min for 1 hour. For measurement wavelengths, an excitation wavelength of 485±20 nm and a fluorescence wavelength of 528±20 nm were used.
as §1

[3] = system: MMP in the A549-derived extracellular vesicles; assay: Digital detection of A549-derived extracellular vesicles through MMP activity in wells (SB substrates); settings: for Extracellular vesicle concentration: at a concentration of x1, 50 fL; for Expected value λ / Number of positives / Positive ratio: Example 36, EV 5 μg/mL, reporter 5 μM, 30° C.
Method: The concentration of the solution is 10 μg/mL.
50 μL of each of the MMP detection solutions was added to 50 μL of the sample to provide a reaction solution for wells.

[4] = system: MMP in the MDA-MB-231-derived extracellular vesicles; assay: Digital detection of MDA-MB-231-derived extracellular vesicles through MMP activity in wells (SB substrates); settings: for Expected value λ / Number of positives / Positive ratio: 6 h; for Extracellular vesicle concentration / Expected value λ (×1): Example 35, 6 h; for Extracellular vesicle concentration: at a concentration of x1, 50 fL; for Expected value λ (×1): from power approximation equation
Method: The concentration of the solution is 10 μg/mL. […] The solution was further diluted 2-fold to prepare a standard sample at a concentration of x1/4, further diluted 3-fold to prepare a standard sample at a concentration of x1/12, and further diluted 3-fold to prepare a standard sample at a concentration of x1/36. Thus, the standard samples with four concentrations were prepared.
In addition, 1 mM Alexa Fluor 647 was used as a standard fluorescent substance, and each of the MMP14 detection solutions contained the standard fluorescent substance at a final concentration of 2 μM.
as §2

[5] = system: ADAM in the MDA-MB-231-derived extracellular vesicles; assay: Digital detection of MDA-MB-231-derived extracellular vesicles through ADAM activity in wells; settings: for Extracellular vesicle concentration: at a concentration of x1, 50 fL; for Expected value λ / Number of positives / Positive ratio: Example 40, EV 2 μg/mL, reporter 5 μM, 30° C.
Method: The concentration of the solution is 4 μg/mL.
50 μL of the ADAM or Cathepsin D detection solution was added to 50 μL of the sample to provide a reaction solution for wells.

[6] = system: ADAM in the MDA-MB-231-derived extracellular vesicles; assay: Detection of ADAM activity of MDA-MB-231-derived extracellular vesicles with 96-well plate; settings: Example 39, EV 3.3 μg/mL, reporter 5 μM, buffer (4)
Method: as §3
In addition, for detection of ADAM activity, 1 mM EPDAB010 or PEPDAB014 was diluted with the buffer (4) to prepare a 10 μM ADAM detection solution. In addition, for detection of Cathepsin D activity, 1 mM CathD was diluted with the buffer (4) to prepare a 10 μM Cathepsin D detection solution.
50 μL of the ADAM detection solution or the Cathepsin D detection solution was added to 50 μL of each of the samples, a reaction was performed at 30° C., and activity was evaluated.

[7] = 1.25 μM with 1.25 μM Custom #2T
[8] = Example 35, 30° C., EV 0 (free of extracellular vesicles, pseudopositive)
[9] = Example 35, 30° C., EV 1/4 a.u.
[10] = Example 35, 30° C., EV 1/12 a.u.
[11] = Example 35, 30° C., EV 1/36 a.u.
[12] = Example 35, reporter 5 μM, 30° C., EV 1/2 a.u. (5 μg/mL in reaction solution)

Row | Substance | Fluorescence change after 1 hour of reaction at 30° C. [1] | Fluorescence change after 2 hours of reaction at 30° C. [1, 7] | Fluorescence change after 2 hours of reaction at 30° C. ([1]; 5 μM with 5 μM Custom #2T) | Fluorescence change after 1 hour of reaction at 30° C. [2] | Expected value λ (×1) ([3]; Example 36, 4 hr) | Extracellular vesicle concentration ([3]; Example 36, 4 hr) [mL⁻¹] | Expected value λ (×1) ([3]; Example 36, 24 hr) | Extracellular vesicle concentration ([3]; Example 36, 24 hr) [mL⁻¹] | Expected value λ ([3]; 4 hr) | Number of positives ([3]; 4 hr) | Positive ratio ([3]; 4 hr) | Expected value λ ([3]; 24 hr) | Number of positives ([3]; 24 hr) | Positive ratio ([3]; 24 hr) | Expected value λ [4, 8] | Number of positives [4, 8] | Positive ratio [4, 8] | Expected value λ [4, 9] | Number of positives [4, 9] | Positive ratio [4, 9] | other results
1 | QXL520-Arg-Pro-Leu-Ala-Leu-Trp-Arg-Lys(5-FAM)-NH2 (QXL520-RPLALWRK(5FAM)-NH2) [SB9] | 62,330 ΔRFU | 39,228 ΔRFU | 40,247 ΔRFU | 1,775 ΔRFU | 0.1169 | 2.338e+09 | 0.01093 | 2.185e+08 | 0.05844 | 1,594 | 0.05677 | 0.00546 | 153 | 0.00545 | 3.56E−05 | 1 | 3.56E−05 | 0.2881 | 7,010 | 0.2503 | Expected value λ [4, 10]: 0.01591; Number of positives [4, 10]: 442; Positive ratio [4, 10]: 0.01579; Expected value λ [4, 11]: 0.01251; Number of positives [4, 11]: 349; Positive ratio [4, 11]: 0.01243; Extracellular vesicle concentration [4]: 4.7e+10 mL⁻¹; Expected value λ (×1) [4]: 2.3593; Expected value λ [4, 12]: 0.9949; Number of positives [4, 12]: 17,697; Positive ratio [4, 12]: 0.6302
2 | QXL520-Pro-Leu-Gly-Met-Trp-Ser-Arg-Lys(5-FAM)-NH2 (QXL520-PLGMWSRK(5FAM)-NH2) [SB6] | 52,130 ΔRFU | 37,893 ΔRFU | 57,158 ΔRFU | 2,043 ΔRFU | 0.141 | 2.819e+09 | 0.09817 | 1.963e+09 | 0.07048 | 1,911 | 0.06806 | 0.04908 | 1,345 | 0.0479 | 3.57E−05 | 1 | 3.57E−05 | 0.5449 | 11,797 | 0.4201 | Expected value λ [4, 10]: 0.09454; Number of positives [4, 10]: 2,533; Positive ratio [4, 10]: 0.09021; Expected value λ [4, 11]: 0.04778; Number of positives [4, 11]: 1,310; Positive ratio [4, 11]: 0.04665; Extracellular vesicle concentration [4]: 4.3e+10 mL⁻¹; Expected value λ (×1) [4]: 2.1589; Expected value λ [4, 12]: 1.006; Number of positives [4, 12]: 17,761; Positive ratio [4, 12]: 0.6343
3 | Dabcyl-EHADLLAVVAK (5FAM)-NH2 ({Dabcyl′}-EHADLLAVVAK(5FAM)-NH2; SMILES CC(C)C[C@H](NC(=O)[C@H](CC(C)C)NC(=O)[C@H](CC(=O)O)NC(=O)[C@H](C)NC(=O)[C@H](Cc1c[nH]cn1)NC(=O)[C@H](CCC(=O)O)NC(=O)c1ccc(/N=N/c2ccc(N(C)C)cc2)cc1)C(=O)N[C@@H](C)C(=O)N[C@H](C(=O)N[C@H](C(=O)N[C@@H](C)C(=O)N[C@@H](CCCCNC(=O)c1ccc2c(c1)C(=O)OC21c2ccc(O)cc2Oc2cc(O)ccc21)C(N)=O)C(C)C)C(C)C) [PEPDAB014] |  |  |  |  |  |  |  |  |  |  |  |  |  |  |  |  |  |  |  |  | Expected value λ (×1) ([5]; Example 40, 4 hr): 0.2813; Extracellular vesicle concentration ([5]; Example 40, 4 hr): 5.625e+09 mL⁻¹; Expected value λ (×1) ([5]; Example 40, 24 hr): 0.4087; Extracellular vesicle concentration ([5]; Example 40, 24 hr): 8.174e+09 mL⁻¹; Expected value λ ([5]; 4 hr): 0.05625; Number of positives ([5]; 4 hr): 1,536; Positive ratio ([5]; 4 hr): 0.0547; Expected value λ ([5]; 24 hr): 0.08174; Number of positives ([5]; 24 hr): 2,204; Positive ratio ([5]; 24 hr): 0.07849; Fluorescence change after 2 hours of reaction at 30° C. [6]: 6,939 ΔRFU
4 | QXL520-Pro-Leu-Ala-Leu-Trp-Ala-Arg-Lys(5-FAM)-NH2 (QXL520-PLALWARK(5FAM)-NH2) [SB2] | 32,088 ΔRFU | 21,733 ΔRFU | 31,832 ΔRFU | 1,154 ΔRFU | 0.1343 | 2.685e+09 | 0.00799 | 1.599e+08 | 0.06712 | 1,823 | 0.06492 | 0.004 | 112 | 0.00399 | 3.56E−05 | 1 | 3.56E−05 | 0.3545 | 8,382 | 0.2985 | Expected value λ [4, 10]: 0.1011; Number of positives [4, 10]: 2,699; Positive ratio [4, 10]: 0.09612; Expected value λ [4, 11]: 0.02931; Number of positives [4, 11]: 811; Positive ratio [4, 11]: 0.02888; Extracellular vesicle concentration [4]: 5.3e+10 mL⁻¹; Expected value λ (×1) [4]: 2.6406; Expected value λ [4, 12]: 1.326; Number of positives [4, 12]: 20,623; Positive ratio [4, 12]: 0.7344
5 | QXL520-Pro-Tyr-Ala-Tyr-Trp-Met-Arg-Lys(5-FAM)-NH2 (QXL520-PYAYWMRK(5FAM)-NH2) [SB7] | 39,031 ΔRFU | 28,167 ΔRFU | 32,014 ΔRFU | 1,228 ΔRFU | 0.02833 | 5.667e+08 | 0.00264 | 5.274e+07 | 0.01417 | 395 | 0.01407 | 0.00132 | 37 | 0.00132 | 0.000107 | 3 | 0.000107 | 0.3689 | 8,663 | 0.3085 | Expected value λ [4, 10]: 0.03574; Number of positives [4, 10]: 986; Positive ratio [4, 10]: 0.03511; Expected value λ [4, 11]: 0.01933; Number of positives [4, 11]: 536; Positive ratio [4, 11]: 0.01914; Extracellular vesicle concentration [4]: 6.8e+10 mL⁻¹; Expected value λ (×1) [4]: 3.4196; Expected value λ [4, 12]: 1.56; Number of positives [4, 12]: 22,181; Positive ratio [4, 12]: 0.7899
